Marks after values point to notes of the source that are not given here. Residues, ends and D or L forms follow the SMILES beside them.
What was measured:
[1] = target: Recombinant latent TGF-beta incubated with TSP1 (Homo sapiens, UniProt P07996); experiment: TSP1 activation of recombinant latent TGF-beta, ELISA specific for active TGF-beta; format: biochemical; settings: latent TGF-beta 500 pM, TSP1 48 nM, compounds 1-100 pM; read-out: Activity (IC 50)
Description: The assay for the IC 50 (Activity) data in Table 1 was as follows: Recombinant latent TGF-beta (500 pM) is incubated with TSP1 (48 nM) in the absence or presence of increasing concentrations of the identified compounds (1-100 pM). TGF-beta activity in the samples was measured using an ELISA specific for active TGF-beta (R&D Systems). IC50 values were calculated from the curves.

[2] = Plasma stability half-life; format: in vitro ADME
Text: Peptides comprising the amino acid sequence LSKL, including the tetrapeptide LSKL, for inhibiting TGF-β activity and the use of these peptides and certain functional derivatives thereof for the treatment of kidney disease are described in U.S. Pat. No. 6,384,189 and U.S. Pat. No. 6,458,767. It is desirable to employ small molecules such as, e.g., LSKL because they are easier to synthesize and, thus, less costly. […] Accordingly, there is a need for small molecules which affect the activation of TGF-β and which also have an extended plasma stability half-life.

TSP1-TGF-β activation = settings: cited from earlier work
[3] = test system: human CAG-heparanase myeloma cells; experiment: Systemic SCID-CAG-heparanase multiple myeloma model; format: in vivo, Male SCID mice; settings: for Human serum κ / IL-6 / Serum TRAcP 5b: osmotic pump, 4 weeks
Description: The Table 2 below provides an analysis of the systemic SCID-CAG-heparanase model treated with increasing doses of Compound No 1 according to the present invention.
Table 2: Analyses of the Systemic SCID-CAG-Heparanase Model Treated with Increasing Doses of Compound No 1
Male SCID mice were injected via tail vein with 1.7×10^6 CAG-hpse cells and tumors allowed to establish over 2 weeks. Groups were randomized according to serum human kappa levels (n=15/group). Treatments were initiated at 2 weeks and continued for 4 weeks. Mice were treated with either saline or 0.3, 3.0, or 30 mg/kg/day of Compound No 1 peptide delivered by osmotic pumps. Pumps were replaced after 2 weeks and fresh peptide and pumps installed. *p<0.05 vs saline.

[4] = Plasma pharmacokinetics after single intravenous and oral administration; format: in vivo, male Swiss Albino mice
[5] = male, Swiss Albino, mouse, iv, 1 mg/kg
[6] = male, Swiss Albino, mouse, po, 3 mg/kg

Recombinant latent TGF-beta incubated with TSP1, sequence (P07996 19-1170): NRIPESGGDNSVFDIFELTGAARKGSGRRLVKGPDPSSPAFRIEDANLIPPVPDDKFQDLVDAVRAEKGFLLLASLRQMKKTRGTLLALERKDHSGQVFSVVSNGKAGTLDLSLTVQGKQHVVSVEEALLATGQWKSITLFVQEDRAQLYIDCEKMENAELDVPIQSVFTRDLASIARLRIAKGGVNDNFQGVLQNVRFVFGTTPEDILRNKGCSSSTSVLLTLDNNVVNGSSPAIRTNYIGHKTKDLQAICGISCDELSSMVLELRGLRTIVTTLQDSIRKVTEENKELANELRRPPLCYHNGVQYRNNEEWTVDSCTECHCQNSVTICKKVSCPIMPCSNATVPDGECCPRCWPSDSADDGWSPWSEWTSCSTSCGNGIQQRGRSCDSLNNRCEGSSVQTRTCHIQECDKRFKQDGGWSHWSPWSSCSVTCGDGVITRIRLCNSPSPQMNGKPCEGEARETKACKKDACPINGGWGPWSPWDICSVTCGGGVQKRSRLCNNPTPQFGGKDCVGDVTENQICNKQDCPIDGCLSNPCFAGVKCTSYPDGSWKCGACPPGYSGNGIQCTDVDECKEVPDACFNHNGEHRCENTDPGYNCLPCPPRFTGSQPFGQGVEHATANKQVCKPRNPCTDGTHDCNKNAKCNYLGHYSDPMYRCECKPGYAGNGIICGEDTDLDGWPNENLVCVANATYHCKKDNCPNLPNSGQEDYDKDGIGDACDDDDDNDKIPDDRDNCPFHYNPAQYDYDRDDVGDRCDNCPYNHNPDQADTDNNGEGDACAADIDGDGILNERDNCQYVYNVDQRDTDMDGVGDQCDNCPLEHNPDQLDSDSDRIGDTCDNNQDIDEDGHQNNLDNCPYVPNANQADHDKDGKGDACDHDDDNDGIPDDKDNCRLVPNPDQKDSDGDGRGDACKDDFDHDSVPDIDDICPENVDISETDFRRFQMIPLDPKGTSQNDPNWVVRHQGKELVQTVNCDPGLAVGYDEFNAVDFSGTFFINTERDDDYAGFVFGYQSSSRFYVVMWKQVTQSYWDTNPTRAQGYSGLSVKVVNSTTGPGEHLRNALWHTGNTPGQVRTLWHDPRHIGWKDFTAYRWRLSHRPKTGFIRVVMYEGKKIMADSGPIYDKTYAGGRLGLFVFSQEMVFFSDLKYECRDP

Which IC50 [1] does the source give for `CC(=O)N[C@H](C(=O)N[C@@H](CCCCN)C(=O)N[C@@H](CC(C)C)C(N)=O)C(C)O` (some centres unmarked) [Compound 2] (HELM PEPTIDE1{[ac].[CC(O)[C@H](N[*:1])C(=O)[*:2]].K.L.[am]}$$$$V2.0) here?
Its IC50 is 0.05 to 0.1 nM.

Which IC50 [1] does the source give for `CNC(=O)[C@H](CC(C)C)NC(=O)[C@@H](CCCCN)NC(=O)[C@@H](NC(C)=O)C(C)O` (some centres unmarked) [Compound 14] (HELM PEPTIDE1{[ac].[CC(O)[C@H](N[*:1])C(=O)[*:2]].[dK].L.[CN[*:1]]}$$$$V2.0) here?
The IC50 was 0.001 to 0.01 nM.

Which IC50 [1] does the source give for `CC(=O)NCCCC[C@H](NC(=O)[C@H](CO)NC(C)=O)C(=O)N[C@@H](CC(C)C)C(N)=O` [Compound 99] (Ac-Ser-Lys(Ac)-Leu-NH2) here?
The IC50 was 0.1 to 0.5 nM.

With `CC(=O)N[C@@H](CO)C(=O)N[C@@H](CCCCN)C(=O)N[C@H](CC(C)C)C(N)=O` [Compound 96] (HELM PEPTIDE1{[ac].S.K.[dL].[am]}$$$$V2.0) as the molecule, how does the IC50 [1] read?
The IC50 was 0.05 to 0.1 nM.

With `CC(=O)N[C@@H](CO)C(=O)N[C@@H](CCCCN)C(=O)N(C)[C@@H](CC(C)C)C(N)=O` [Compound 10] (HELM PEPTIDE1{[ac].S.K.[meL].[am]}$$$$V2.0) as the molecule, how does the IC50 [1] read?
Its IC50 is 0.1 to 0.5 nM.

Which half-life [2] does the source give for `CC(C)C[C@H](NC(=O)[C@H](CCCCN)NC(=O)[C@H](CO)NC(=O)[C@@H](N)CC(C)C)C(=O)O` [LSKL, leucine-serine-lysine-leucine] (H-LSKL-OH; N-terminus and C-terminus assumed) here?
Its half-life is 2.1 min.

What about the necropsy findings (TSP1-TGF-β activation; after 15 weeks of 30 mg/kg i.p., 3 times weekly) of the same molecule?
Its necropsy findings is “no inflammation, no tumors in all major organs, and no impairment of wound healing”.

What about the “Smad signaling and dermal wound healing” value (TSP1-TGF-β activation; systemic administration, diabetic mice) of the same molecule?
Its value is “did not reduce Smad signaling or impair dermal wound healing”.

Which IC50 [1] does the source give for `CNC(=O)[C@H](CC(C)C)NC(=O)[C@H](CCCCN)NC(=O)[C@H](CO)NC(C)=O` [Compound 13] (HELM PEPTIDE1{[ac].S.K.L.[CN[*:1]]}$$$$V2.0) here?
The IC50 was 0.05 to 0.1 nM.

For `CC(=O)N[C@@H](CO)C(=O)N[C@@H](CCCCN)C(=O)N[C@@H](CC1CC1)C(N)=O` [Compound 37] (HELM PEPTIDE1{[ac].S.K.[O=C([C@H](CC1CC1)N[*:1])[*:2]].[am]}$$$$V2.0), which IC50 [1] is on record?
Its IC50 is 0.05 to 0.1 nM.

With `CC(=O)N[C@H](CO)C(=O)N[C@@H](CCCCN)C(=O)N[C@@H](CC(C)C)C(N)=O` [Compound 94] (HELM PEPTIDE1{[ac].[dS].K.L.[am]}$$$$V2.0) as the molecule, how does the IC50 [1] read?
Its IC50 is 0.1 to 0.5 nM.

Which IC50 [1] does the source give for `CNCCCC[C@H](NC(=O)[C@H](CO)NC(C)=O)C(=O)N[C@@H](CC(C)C)C(N)=O` [Compound 98] (HELM PEPTIDE1{[ac].S.[CNCCCC[C@H](N[*:1])C(=O)[*:2]].L.[am]}$$$$V2.0) here?
The IC50 was 0.1 to 0.5 nM.

With `CC(=O)N[C@@H](CO)C(=O)N[C@H](CCCCN)C(=O)N[C@@H](CC(C)C)C(N)=O` [Compound 95] (HELM PEPTIDE1{[ac].S.[dK].L.[am]}$$$$V2.0) as the molecule, how does the IC50 [1] read?
Its IC50 is 0.001 to 0.01 nM.

With `CC(=O)N[C@@H](CO)C(=O)N[C@@H](CCCCN)C(=O)N[C@@H](CC(C)C)C(N)=O` [Compound 1] (Ac-Ser-Lys-Leu-NH2) as the molecule, how does the IC50 [1] read?
The IC50 was 0.001 to 0.01 nM.

What about the “Human serum κ” value ([3]; 0.3 mg/kg/day) of the same molecule?
The value was 5134 ± 696 ng/mL.

And the IL-6 ([3]; 0.3 mg/kg/day)?
Its IL-6 is 70.2 ± 4.7 pg/mL.

What about the “Serum TRAcP 5b” value ([3]; 0.3 mg/kg/day) of the same molecule?
Its value is 3.6 +/− 0.28 U/L.

And the “Human serum κ” value ([3]; 3.0 mg/kg/day)?
The value was 3465 +/− 422* ng/ml.

And the IL-6 ([3]; 3.0 mg/kg/day)?
The IL-6 was 40.0 +/− 4.2* pg/ml.

What about the “Serum TRAcP 5b” value ([3]; 3.0 mg/kg/day) of the same molecule?
The value was 2.8 +/− 0.15* U/L.

And the “tibial bone loss (FIG. 1)” value ([3]; 30 mg/kg dose, SCID/CAG-hpse MM model)?
The value was “reducing tibial bone loss”.

What about the “TRAP^+ OC/mm BS” value ([3]; 30 mg/kg/day) of the same molecule?
The value was 1.0 +/− 0.2*.

And the “p-Smad 2 IHC in bone marrow” value ([3]; 30 mg/kg/day)?
The value was 2390 +/− 472* arbitrary units.

And the “μCT (tibia) BV/TV” value ([3]; 30 mg/kg/day, n = 4)?
Its value is 0.13 +/− 0.01*.

And the “μCT (tibia) TbN” value ([3]; 30 mg/kg/day, n = 4)?
Its value is 4.03 +/− 0.28*.

What about the “μCT (tibia) TbSp” value ([3]; 30 mg/kg/day, n = 4) of the same molecule?
Its value is 0.25 +/− 0.02*.

What about the “Human serum κ” value ([3]; 30 mg/kg/day) of the same molecule?
The value was 2593 +/− 443* ng/ml.

And the IL-6 ([3]; 30 mg/kg/day)?
The IL-6 was 31.8 +/− 4.0* pg/ml.

And the “Serum TRAcP 5b” value ([3]; 30 mg/kg/day)?
The value was 2.5 +/− 0.13* U/L.

And the Co ([4]; i.v., 1 mg/kg)?
Its Co is 1025.73 ng/mL.

What about the AUC(0-inf) [4, 5] of the same molecule?
Its AUC(0-inf) is 1380 ng·h/mL.

What about the AUC(0-t) [4, 5] of the same molecule?
Its AUC(0-t) is 1210 ng·h/mL.

And the clearance [4, 5]?
Its clearance is 12.1 mL/min/kg.

And the half-life [4, 5]?
The half-life was 637 min.

And the Vd ([4]; male, Swiss Albino, mouse, iv, 1 mg/kg, read-out: Vss)?
The Vd was 6.31 L/kg.

And the bioavailability ([4]; male, Swiss Albino, mouse, oral 3 mg/kg vs i.v. 1 mg/kg)?
The bioavailability was 24%.

What about the AUC(0-inf) [4, 6] of the same molecule?
The AUC(0-inf) was 1070 ng·h/mL.

What about the AUC(0-t) [4, 6] of the same molecule?
Its AUC(0-t) is 875 ng·h/mL.

What about the Cmax [4, 6] of the same molecule?
The Cmax was 208 ng/mL.

And the Tmax [4, 6]?
Its Tmax is 30 min.

With `COC[C@H](NC(C)=O)C(=O)N[C@@H](CCCCN)C(=O)N[C@@H](CC(C)C)C(N)=O` [Compound 100] (Ac-Ser(Me)-Lys-Leu-NH2) as the molecule, how does the IC50 [1] read?
The IC50 was 0.1 to 0.5 nM.

With `CCC(=O)N[C@@H](CO)C(=O)N[C@@H](CCCCN)C(=O)N[C@@H](CC(C)C)C(N)=O` [Compound 101] (HELM PEPTIDE1{[CCC(=O)[*:2]].S.K.L.[am]}$$$$V2.0) as the molecule, how does the IC50 [1] read?
Its IC50 is 0.1 to 0.5 nM.

For `CC(=O)N[C@@H](CO)C(=O)N[C@@H](CCCCN(C)C)C(=O)N[C@@H](CC(C)C)C(N)=O` [Compound 22] (HELM PEPTIDE1{[ac].S.[CN(C)CCCC[C@H](N[*:1])C(=O)[*:2]].L.[am]}$$$$V2.0), which IC50 [1] is on record?
Its IC50 is 0.1 to 0.5 nM.

For `CC(=O)N[C@@H](CO)C(=O)N[C@@H](CCCCN)C(=O)N[C@@H](CC(C)C)C(=O)N(C)C` [Compound 97] (HELM PEPTIDE1{[ac].S.K.L.[CN(C)[*:1]]}$$$$V2.0), which IC50 [1] is on record?
The IC50 was 0.1 to 0.5 nM.
